Source: patent US10111426B2, “Biocidal materials” (priority 2011, dated 2018)

Experiment: ultimate aerobic biodegradability in aqueous medium, OECD method 301 B
Details: on the fourteenth day / after 14 days
Experimental: This test is an evaluation, in aqueous medium, of the ultimate aerobic biodegradability of a sample of the concentrated formulation according to the invention. This test is carried out according to the provisions of OECD method 301 B at the concentration of […] corresponding to an organic carbon content of 10 mg/l. The theoretical amount of carbon dioxide formed (CO2Th) in the “concentrated disinfectant detergent for floors, surfaces and materials at 10 mg/l of DOC” test is equal to 33.0 mg/l.
The physicochemical analysis is carried out according to standard ASTM D5291.
FIG. 1 represents the curves of results of degradation with respect to CO2Th.

## CC(=O)[O-].[Na+] [sodium acetate]
  percentage degradation: 81%
